Laboratory results from patent US20100189701A1, “METHODS AND COMPOSITIONS TO TREAT ARRHYTHMIAS” (priority 2007, published 2010).

Legend:
[1] = system: MMP-7; details: clinically relevant dosages; cited from earlier work
[2] = system: epicardial border zone; assay: Canine infarct epicardial border zone, electrograms and microelectrode study; type: in vivo, dog; details: dog, in vivo
[3] = system: neonatal rat ventricular myocyte cultures; assay: Conduction velocity in neonatal rat ventricular myocyte cultures on multi-electrode array; type: cell-based
[4] = system: HCN2 induced current; assay: Autonomic agonists on HCN2 induced current in hMSCs; type: cell-based
[5] = system: monomorphic ventricular tachycardia; details: one week after gene transfer; cited from earlier work
[6] = cited from earlier work
[7] = Sodium channel steady state inactivation (literature values); details: depolarization to −65 mV
Description: Since slow conduction is an essential feature of reentrant cardiac arrhythmias, it seems worth considering other mammalian sodium channels that might have more favorable properties than the cardiac Na channel in circumstances that favor slow conduction. One such circumstance is membrane depolarization and so the voltage dependence of steady state inactivation is of interest. Cohen Table I provides a comparison of the midpoints for steady state inactivation and slope factor for the cardiac and skeletal muscle sodium channels and a specific mutant of the skeletal muscle channel (G1306E). […] Thus, if cardiac muscle is depolarized to −65 mV, virtually all cardiac sodium channels would be inactivated, while a similar depolarization would leave almost half of normal skeletal muscle sodium channels available. This observation thus relates to a method of the present invention that the use of alternative sodium channels with more favorable biophysical properties serve as a useful antiarrhythmic therapy.
Besides existing sodium channels, much has been learned from structure-function studies in which specific amino acids have been mutated. An extensive study of the S4 domain of the skeletal muscle sodium channel was conducted by Haywood et al. (1996), J. Gen. Physiol. 107, 559-576 in an attempt to understand the origins of enhanced excitability in inherited human myotonia. […]

[8] = system: Xenopus oocytes

For COc1cc2ncnc(Nc3ccc(F)c(Cl)c3)c2cc1OCCCN1CCOCC1 [Gefitinib], the MMP-7 activity [1] is given as “inhibits MMP-7 activity”.

In the case of NC1=N[C@H](O)[C@H]2[C@H]3O[C@]4(O)O[C@@H]([C@@H](O)[C@@]2(N1)[C@@H]4O)[C@]3(O)CO [TTX, tetrodotoxin], the “Vmax and membrane responsiveness response” value [2] is reported as “significant response to TTX” and the conduction velocity decrease [3] is reported as 20%.

With CC(C)NCC(O)c1ccc(O)c(O)c1 (stereo not shown) [isoproterenol] the “effect on expressed HCN2 current” value [4] was “has a direct effect on the expressed current”.

In the case of Cx43: connexin, the “animals showing no inducible monomorphic VT” value [5] is given as 4 of 5.

In the case of p-conotoxin GIIIA [μ-CTX GIIIA], the “effect on CV” value [3] is reported as “CV is reduced in SkM1 cultures to the level recorded in GFP cultures”.

In the case of “skM1(G1306E): specific mutant of the skeletal muscle sodium channel”, the inactivation midpoint ([6]; as stated in Example 16 group description) is listed as −55 mV, the activation midpoint ([6]; as worded) is listed as −57 mV and the Slope factor ([6]; steady state inactivation) is listed as −5.2 mV. For the same molecule, the sodium channels available [7] was “more than 70%”.

B1: HERG-G628S: dominant negative HERG mutant (protein, UniProt Q12809 1-1159, looked up, variant G628S)
Voltage-gated inwardly …: MPVRRGHVAPQNTFLDTIIRKFEGQSRKFIIANARVENCAVIYCNDGFCELCGYSRAEVMQRPCTCDFLHGPRTQRRAAAQIAQALLGAEERKVEIAFYRKDGSCFLCLVDVVPVKNEDGAVIMFILNFEVVMEKDMVGSPAHDTNHRGPPTSWLAPGRAKTFRLKLPALLALTARESSVRSGGAGGAGAPGAVVVDVDLTPAAPSSESLALDEVTAMDNHVAGLGPAEERRALVGPGSPPRSAPGQLPSPRAHSLNPDASGSSCSLARTRSRESCASVRRASSADDIEAMRAGVLPPPPRHASTGAMHPLRSGLLNSTSDSDLVRYRTISKIPQITLNFVDLKGDPFLASPTSDREIIAPKIKERTHNVTEKVTQVLSLGADVLPEYKLQAPRIHRWTILHYSPFKAVWDWLILLLVIYTAVFTPYSAAFLLKETEEGPPATECGYACQPLAVVDLIVDIMFIVDILINFRTTYVNANEEVVSHPGRIAVHYFKGWFLIDMVAAIPFDLLIFGSGSEELIGLLKTARLLRLVRVARKLDRYSEYGAAVLFLLMCTFALIAHWLACIWYAIGNMEQPHMDSRIGWLHNLGDQIGKPYNSSGLGGPSIKDKYVTALYFTFSSLTSVGFSNVSPNTNSEKIFSICVMLIGSLMYASIFGNVSAIIQRLYSGTARYHTQMLRVREFIRFHQIPNPLRQRLEEYFQHAWSYTNGIDMNAVLKGFPECLQADICLHLNRSLLQHCKPFRGATKGCLRALAMKFKTTHAPPGDTLVHAGDLLTALYFISRGSIEILRGDVVVAILGKNDIFGEPLNLYARPGKSNGDVRALTYCDLHKIHRDDLLEVLDMYPEFSDHFWSSLEITFNLRDTNMIPGSPGSTELEGGFSRQRKRKLSFRRRTDKDTEQPGEVSALGPGRAGAGPSSRGRPGGPWGESPSSGPSSPESSEDEGPGRSSSPLRLVPFSSPRPPGEPPGGEPLMEDCEKSSDTCNPLSGAFSGVSNIFSFWGDSRGRQYQELPRCPAPTPSLLNIPLSSPGRRPRGDVESRLDALQRQLNRLETRLSADMATVLQLLQRQMTLVPPAYSAVTTPGPGPTSTSPLLPVSPLPTLTLDSLSQVSQFMACEELPPGAPELPQEGPTRRLSLPGQLGALTSQPLHRHGSDPGS
For B1, the “animals showing no inducible monomorphic VT” value [5] is listed as 5 of 5.

B2: ERG3: delayed rectifier with steady state window current (protein, UniProt Q9NS40 1-1196, looked up)
Voltage-gated inwardly …: MPVRRGHVAPQNTFLGTIIRKFEGQNKKFIIANARVQNCAIIYCNDGFCEMTGFSRPDVMQKPCTCDFLHGPETKRHDIAQIAQALLGSEERKVEVTYYHKNGSTFICNTHIIPVKNQEGVAMMFIINFEYVTDNENAATPERVNPILPIKTVNRKFFGFKFPGLRVLTYRKQSLPQEDPDVVVIDSSKHSDDSVAMKHFKSPTKESCSPSEADDTKALIQPSKCSPLVNISGPLDHSSPKRQWDRLYPDMLQSSSQLSHSRSRESLCSIRRASSVHDIEGFGVHPKNIFRDRHASEDNGRNVKGPFNHIKSSLLGSTSDSNLNKYSTINKIPQLTLNFSEVKTEKKNSSPPSSDKTIIAPKVKDRTHNVTEKVTQVLSLGADVLPEYKLQTPRINKFTILHYSPFKAVWDWLILLLVIYTAIFTPYSAAFLLNDREEQKRRECGYSCSPLNVVDLIVDIMFIIDILINFRTTYVNQNEEVVSDPAKIAIHYFKGWFLIDMVAAIPFDLLIFGSGSDETTTLIGLLKTARLLRLVRVARKLDRYSEYGAAVLMLLMCIFALIAHWLACIWYAIGNVERPYLTDKIGWLDSLGQQIGKRYNDSDSSSGPSIKDKYVTALYFTFSSLTSVGFGNVSPNTNSEKIFSICVMLIGSLMYASIFGNVSAIIQRLYSGTARYHMQMLRVKEFIRFHQIPNPLRQRLEEYFQHAWTYTNGIDMNMVLKGFPECLQADICLHLNQTLLQNCKAFRGASKGCLRALAMKFKTTHAPPGDTLVHCGDVLTALYFLSRGSIEILKDDIVVAILGKNDIFGEMVHLYAKPGKSNADVRALTYCDLHKIQREDLLEVLDMYPEFSDHFLTNLELTFNLRHESAKADLLRSQSMNDSEGDNCKLRRRKLSFESEGEKENSTNDPEDSADTIRHYQSSKRHFEEKKSRSSSFISSIDDEQKPLFSGIVDSSPGIGKASGLDFEETVPTSGRMHIDKRSHSCKDITDMRSWERENAHPQPEDSSPSALQRAAWGISETESDLTYGEVEQRLDLLQEQLNRLESQMTTDIQTILQLLQKQTTVVPPAYSMVTAGSEYQRPIIQLMRTSQPEASIKTDRSFSPSSQCPEFLDLEKSKLKSKESLSSGVHLNTASEDNLTSLLKQDSDLSLELHLRQRKTYVHPIRHPSLPDSSLSTVGIVGLHRHVSDPGLPGK
With B2 the “potential of maximal steady state conductance” value [8] was −50 mV and the “steady state window conductance vs other ERG family members” value [8] was “largest steady state conductance”.
